The source of these data is patent US20230131899A1, “INHIBITORS OF MICROBIALLY INDUCED AMYLOID” (Axial Therapeutics, Inc., priority 2020, published 2023).

The structures appear in SMILES notation. Where two headings read alike, the source gives them in different places.

Test [1] deals with T1, E. coli CsgA (Escherichia coli, UniProt P28307).
T1 construct: made in house; host or cells: E. coli NEB 3016 slyD::kan, pET11d
The test can be described thus: In vitro ThioflavinT assay of CsgA aggregation (CsgA ThT Assay). The class given is biochemical. The settings on record: for remaining activity at 25 µM: compound 25 μM; for remaining activity at 100 µM: compound 100 μM. In short, it runs like this:
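Purified C-terminal His-tagged CsgA, monomerised by desalting and 30-kDa filtration, at 2-20 μM with 20-40 μM ThT in 50 mM potassium phosphate pH 7.3, 1% DMSO, compounds 3.125-200 uM; room temperature, fluorescence (ex 438/em 495 nm) read every 15 min. Background-subtracted signal expressed as percent inhibition versus vehicle at 6-6.5 or 8-9 h, or as percent control AUC.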

The target of test [2] is T2, human α-synuclein (Homo sapiens, UniProt P37840).
T2 construct: the full-length gene for untagged human α-synuclein was inserted; made in house; host or cells: E. coli BL21(DE3), plasmid derived from pT7 or pET11a
The test can be described thus: Cell-free Thioflavin T assay of α-synuclein aggregation (αSyn ThT Assay). The class given is biochemical. The settings on record: αSyn 50 μM. On the procedure: To assess the effects of compounds on aggregation of α-synuclein, a cell-free assay was performed using purified α-synuclein and Thioflavin T. In the assay, human α-synuclein was expressed in E. coli BL21(DE3) from a plasmid derived from pT7 or pET11a into which the full-length gene for untagged human α-synuclein was inserted. Cells were induced at OD600 0.6 with 0.8 mM IPTG for 4 hours, harvested by centrifugation and suspended in a volume of lysis buffer (10 mM Tris, pH 8.0, 1 mM EDTA, and 1 mM PMSF) equivalent to one-tenth the volume of culture and lysed by boiling for 20 minutes. Cell debris was pelleted by centrifugation, clarified lysate was treated with 10% streptomycin sulfate at 136 μL/mL followed by glacial acetic acid at 228 μL/mL, lysate was centrifuged, supernatant was transferred to a fresh tube and protein was precipitated via addition of an equal volume of saturated (100%) ammonium sulfate and incubated at 4° C. on a rocking shaker for 1 hour. The protein was pelleted via centrifugation and washed with an equal volume of 100 mM ammonium acetate in chilled ethanol, pelleted via centrifugation, washed twice with chilled ethanol, dried overnight, resuspended in 50 mM potassium phosphate buffer pH 7.3 or 10 mM Tris pH 7.4, and passed through a 50 kDa cut-off column. Immediately prior to use, the purified α-synuclein was filtered with a 0.2 μm nylon filter. The assay was conducted in 96-well black microplates with a single 1-2 mm glass bead in each well, 20-40 μM ThioflavinT, 1% DMSO, α-synuclein at 50 μM and compounds at 20-100 μM. Plates were sealed with sealing tape (ThermoFisher 232701), incubated at 37° C. in a Tecan Nano F200 plate reader with excitation at 438 nm using a 439 nm filter with a bandwidth of 8 nm, and emission at 495 nm with a 490 nm filter with a bandwidth of 10 nm. During the assay, plates were shaken continuously or were shaken for 999 seconds every 18 minutes. Readings were performed hourly for up to 73 hours. The effect of compounds on α-synuclein aggregation in the assay was determined with data at 36, 47, 48 or 72 hours or from the final timepoint of the assay, prior to or roughly near the time when ThT fluorescence plateaued in the vehicle control wells. The vehicle controls contained all components of the assay except compounds and represented the level of α-synuclein aggregation in the absence of an inhibitor or accelerator. Fluorescence values for each compound with α-synuclein were first adjusted by subtracting the average fluorescence of the compound in the absence of α-synuclein. These adjusted values were normalized by dividing them by the average fluorescence at the same timepoint in the vehicle control wells, and the average normalized fluorescence with the compound was expressed as a percentage of the average fluorescence observed in untreated controls. Percent inhibition of α-synuclein aggregation by a compound was determined by subtracting the percent average fluorescence with the compound relative to the average vehicle control from 100%. A higher positive percent inhibition reflects greater inhibition of α-synuclein aggregation, while a negative percent inhibition reflects potentiation of α-synuclein aggregation.
Alternate concentrations of Thioflavin T may be used in the assay and may affect the fluorescent signal and sensitivity of the assay. Alternate concentrations of α-synuclein may be used and such alterations may affect aggregation kinetics of α-synuclein in the assay. Alternate concentrations of compounds may be tested in the assay, and dose-responses may be evaluated. Additional reagents may be added to the assay which may affect aggregation kinetics of α-synuclein depending on their concentration, including detergents such as sodium dodecyl sulfate, sodium chloride, dithiotreitol, or bovine serum albumin. Shaking may be included at alternate intervals in the assay and may affect α-synuclein aggregation kinetics. […]

For test [3], the system named is CsgA gene expression (csgBAC promoter-GFP reporter) in E. coli UTI89. The test can be described thus: In vitro live cell fluorescent reporter assay of CsgA transcription (Reporter Assay). The class given is cell-based. The settings on record: Escherichia coli. In outline: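 Compounds at 0.14–100 μM (1% DMSO final) incubated 20 h at 27 °C in YESCA broth with UTI89 carrying a single-copy GFP reporter under the csgBAC intergenic promoter region, inoculum OD600 0.003. Fluorescence normalized to vehicle wells gave IC50 and 50%-of-vehicle concentration; OD600 reduction >10% flagged growth impact.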

[4] abbreviates: read-out: CsgA ThT Assay (10 μM CsgA) % Control AUC at 1005 minutes, 25 μM (activity range), CsgA 10 μM, black plates, 1005 minutes, class symbol.
The mark [5] stands for this setting: read-out: CsgA ThT Assay (10 μM CsgA) % Control AUC at 1005 minutes, 25 μM, mean AUC as % of DMSO control, CsgA 10 μM, black plates, 1005 minutes.
The mark [6] stands for this setting: read-out: CsgA ThT Assay (10 μM CsgA) % Control AUC at 1005 minutes, 100 μM (activity range), CsgA 10 μM, black plates, 1005 minutes, class symbol.
[7] abbreviates: read-out: CsgA ThT Assay (10 μM CsgA) % Control AUC at 1005 minutes, 100 μM, mean AUC as % of DMSO control, CsgA 10 μM, black plates, 1005 minutes.
Where [8] appears, read: mean % inhibition of αSyn aggregation relative to DMSO control, compounds at 100 μM, read-out: αSyn ThT Assay % Inhibition.
The mark [9] stands for this setting: compounds at 100 μM, class symbol, read-out: αSyn ThT Assay % Inhibition (activity range).
Setting [10] is: read-out: Reporter Assay Abs IC50 (activity range), median Abs IC50 in the CsgA reporter assay, class symbol.
[11] abbreviates: read-out: Reporter Assay Abs IC50 (μM), median Abs IC50 in the CsgA reporter assay, N/A = maximum expression reduction is <50% of control.

T1 sequence (P28307 23-151): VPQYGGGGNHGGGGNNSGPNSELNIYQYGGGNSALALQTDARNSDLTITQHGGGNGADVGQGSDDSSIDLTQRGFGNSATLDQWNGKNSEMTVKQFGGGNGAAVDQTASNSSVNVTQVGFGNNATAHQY

Usually inhibition stands for how much of the control response was suppressed. Take `CC(=O)Nc1ccc(Cc2cc(=O)n3c(c2-c2cccc(C(F)(F)F)c2)S(=O)(=O)N(C)CC3C(=O)O)c2ccccc12` (centres unmarked) [Compound 048]: the figures for the remaining activity at 25 µM in test [1] (setting [4]) and in test [1] (setting [5]) were more than 60% and 90%, respectively. The remaining activity at 100 µM in test [1] (setting [6]) is more than 60%; in test [1] (setting [7]), 61%. Further, the values for the inhibition at 100 µM in test [2] (setting [8]) and in test [2] (setting [9]) were 18% and 11 to 30%, respectively.
Regarding `CC(C)NC(=O)c1c(Cc2cccc3ccccc23)c(-c2cccc(C(F)(F)F)c2)c2n(c1=O)C(C(=O)O)CN(C)S2(=O)=O` (centres unmarked) [Compound 157, 7-(isopropylcarbamoyl)-2-methyl-8-(naphthalen-1-ylmethyl)-6-oxo-9-(3-(trifluoromethyl)phenyl)-3,4-dihydro-2H,6H-pyrido[1,2-e][1,2,5]thiadiazine-4-carboxylic acid 1,1-dioxide], the remaining activity at 25 µM in test [1] (read-out: CsgA ThT Assay (2 μM CsgA) % Control Bmax 25 μM, activity range, class symbol, CsgA 2 μM, white plates) is more than 60%; in test [1] (read-out: CsgA ThT Assay (2 μM CsgA) % Control Bmax 25 μM, mean Bmax as percentage of DMSO control, CsgA 2 μM, white plates), 81%. For the same compound, the remaining activity at 100 µM in test [1] (read-out: CsgA ThT Assay (2 μM CsgA) % Control Bmax 100 μM, activity range, class symbol, CsgA 2 μM, white plates) was more than 60%; in test [1] (read-out: CsgA ThT Assay (2 μM CsgA) % Control Bmax 100 μM, mean Bmax as percentage of DMSO control, CsgA 2 μM, white plates), 124%. In addition, the inhibition at 100 µM is more than 60% in test [2] (class symbol, compounds 100 μM, read-out: αSyn ThT Assay % inhibition, activity range) and 83% in test [2] (mean percent inhibition relative to DMSO control, compounds 100 μM, read-out: αSyn ThT Assay % inhibition).
`O=C(O)C1CNS(=O)(=O)c2c(-c3cccc(C(F)(F)F)c3)c(Cc3cccc4ccccc34)cc(=O)n21` (racemic) [Compound 009, 8-(naphthalen-1-ylmethyl)-6-oxo-9-(3-(trifluoromethyl)phenyl)-3,4-dihydro-2H,6H-pyrido[1,2-e][1,2,5]thiadiazine-4-carboxylic acid 1,1-dioxide]: the inhibition at 100 µM in test [2] (setting [8]) was 28%; in test [2] (setting [9]), 11 to 30%.
With `O=C(O)C1CS(=O)(=O)c2c(-c3cccc(C(F)(F)F)c3)c(Cc3cccc4ccccc34)cc(=O)n21` (racemic) [Compound 010, 7-(naphthalen-1-ylmethyl)-5-oxo-8-(3-(trifluoromethyl)phenyl)-2,3-dihydro-5H-thiazolo[3,2-a]pyridine-3-carboxylic acid 1,1-dioxide], the inhibition at 100 µM in test [2] (setting [8]) is 13%; in test [2] (setting [9]), 11 to 30%.
Turning to `CN1CC(C(=O)O)n2c(c(-c3cccc(C(F)(F)F)c3)c(Cc3cccc4ccccc34)cc2=O)S1(=O)=O` (single isomer, unassigned) [Compound 008b, 2-methyl-8-(naphthalen-1-ylmethyl)-6-oxo-9-(3-(trifluoromethyl)phenyl)-3,4-dihydro-2H,6H-pyrido[1,2-e][1,2,5]thiadiazine-4-carboxylic acid 1,1-dioxide], the “αSyn ThT Assay % Inhibition” value in test [2] (mean % inhibition of αSyn aggregation relative to DMSO control, compounds at 100 μM) was 10%. For the same compound, the “αSyn ThT Assay % Inhibition (activity range)” value in test [2] (compounds at 100 μM, class symbol) is “(−) ((−) represents −10 to 10)”.
Regarding `O=C(O)C1CS(=O)(=O)c2c(-c3cccc(C(F)(F)F)c3)c(Cc3cccc4ccccc34)cc(=S)n21` (racemic) [Compound 014, 7-(naphthalen-1-ylmethyl)-5-thioxo-8-(3-(trifluoromethyl)phenyl)-2,3-dihydro-5H-thiazolo[3,2-a]pyridine-3-carboxylic acid 1,1-dioxide], the inhibition at 100 µM is 35% in test [2] (setting [8]) and 31 to 60% in test [2] (setting [9]).
As usually defined, the IC50 is the concentration at which inhibition is half-maximal. Turning to `O=C(O)C1CNc2c(-c3cccc(C(F)(F)F)c3)c(Cc3cccc4ccccc34)cc(=O)n21` (centres unmarked) [Compound 080, 7-(naphthalen-1-ylmethyl)-5-oxo-8-(3-(trifluoromethyl)phenyl)-1,2,3,5-tetrahydroimidazo[1,2-a]pyridine-3-carboxylic acid], the remaining activity at 25 µM was more than 60% in test [1] (setting [4]) and 80% in test [1] (setting [5]). Besides, the remaining activity at 100 µM in test [1] (setting [6]) was more than 60%; in test [1] (setting [7]) it was 72%. Moreover, the IC50 is more than 10 µM in test [3] (setting [10]) and 26.3 µM in test [3] (setting [11]).
Take `CN1CC(C(=O)O)n2c1c(-c1cccc(C(F)(F)F)c1)c(Cc1cccc3ccccc13)cc2=O` (centres unmarked) [Compound 104, 1-methyl-7-(naphthalen-1-ylmethyl)-5-oxo-8-(3-(trifluoromethyl)phenyl)-1,2,3,5-tetrahydroimidazo[1,2-a]pyridine-3-carboxylic acid]: the remaining activity at 25 µM in test [1] (setting [4]) is more than 60%; in test [1] (setting [5]), 82%. The remaining activity at 100 µM in test [1] (setting [6]) was 31 to 60%; in test [1] (setting [7]) it was 52%. Besides, the IC50 is 4.6 to 10 µM in test [3] (setting [10]) and 6 µM in test [3] (setting [11]).
As for `O=c1cc(Cc2cccc3ccccc23)c(-c2cccc(C(F)(F)F)c2)c2n1C(CO)CS2` (centres unmarked) [Compound 118, 3-(hydroxymethyl)-7-(naphthalen-1-ylmethyl)-8-(3-(trifluoromethyl)phenyl)-2,3-dihydro-5H-thiazolo[3,2-a]pyridin-5-one], the remaining activity at 25 µM was more than 60% in test [1] (setting [4]) and 92% in test [1] (setting [5]). Moreover, the remaining activity at 100 µM in test [1] (setting [6]) is more than 60%; in test [1] (setting [7]) it was 76%. Moreover, the IC50 is 1.3 to 4.5 µM in test [3] (setting [10]) and 3.9 µM in test [3] (setting [11]).
